Reference: patent publication US20090142347A1, “Tissue-Nonspecific Alkaline Phosphatase (TNAP): a Therapeutic Target for Arterial Calcification” (THE BURNHAM INSTITUTE FOR MEDICAL RESEARCH, priority 2004, published 2009)

Key:
hTNALP (F104, Q109) = hTNALP (F104, Q109) (Homo sapiens, UniProt P05186, E125F/G126Q); assay: biochemical
hTNALP Q434 = hTNALP Q434 (Homo sapiens, UniProt P05186, H451Q); assay: biochemical
hTNALP N120 = hTNALP N120 (Homo sapiens, UniProt P05186, S137N); assay: biochemical
Sequence of hTNALP N120 (P05186 18-501 S137N): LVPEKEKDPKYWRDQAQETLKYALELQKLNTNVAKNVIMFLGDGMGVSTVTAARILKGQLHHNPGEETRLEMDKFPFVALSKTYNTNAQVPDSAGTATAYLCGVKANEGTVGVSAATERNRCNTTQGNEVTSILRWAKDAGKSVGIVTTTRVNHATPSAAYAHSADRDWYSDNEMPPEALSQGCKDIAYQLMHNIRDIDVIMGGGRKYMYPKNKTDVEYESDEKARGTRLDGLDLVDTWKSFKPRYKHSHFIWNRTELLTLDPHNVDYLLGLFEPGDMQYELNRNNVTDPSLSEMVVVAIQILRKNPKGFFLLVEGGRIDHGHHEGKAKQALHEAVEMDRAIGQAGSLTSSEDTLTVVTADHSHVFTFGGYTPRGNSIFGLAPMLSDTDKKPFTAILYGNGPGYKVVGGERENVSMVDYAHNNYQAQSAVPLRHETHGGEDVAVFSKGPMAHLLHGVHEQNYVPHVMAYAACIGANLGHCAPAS

chTNALP = target: T1, chTNALP (Gallus gallus, UniProt Q92058); assay: Ki of uncompetitive inhibitors (pNPP substrate); format: biochemical, chicken; settings: read-out: Ki for various inhibitors
T1 sequence (Q92058 17-498): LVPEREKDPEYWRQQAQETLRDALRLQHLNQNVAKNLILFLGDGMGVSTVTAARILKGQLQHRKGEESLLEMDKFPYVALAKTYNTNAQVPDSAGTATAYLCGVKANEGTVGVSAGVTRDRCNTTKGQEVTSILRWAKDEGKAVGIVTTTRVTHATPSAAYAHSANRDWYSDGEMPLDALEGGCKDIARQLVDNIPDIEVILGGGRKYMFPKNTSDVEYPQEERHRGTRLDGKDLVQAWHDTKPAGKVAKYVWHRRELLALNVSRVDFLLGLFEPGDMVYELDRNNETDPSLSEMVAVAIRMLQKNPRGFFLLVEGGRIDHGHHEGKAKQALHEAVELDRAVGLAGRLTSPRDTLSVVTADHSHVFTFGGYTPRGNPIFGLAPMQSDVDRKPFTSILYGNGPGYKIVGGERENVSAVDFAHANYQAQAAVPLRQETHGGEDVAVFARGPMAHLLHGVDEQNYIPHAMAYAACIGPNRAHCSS
Description: (See Kozlenkov A, et al., 2002). […] TNAP and PLAP structures were superimposed and the amino acid differences within a 12 Å radius around the catalytic Zn1 ion were pinpointed. The difference between human TNAP and chicken TNAP were also mapped because it is reported that chicken TNAP is much less susceptible to levamisol than is human TNAP. In total, six positions with amino acid differences were found, which could be clustered into two groups. […] In addition, […] and […] were also investigated.

hTNALP B434 = hTNALP B434 (Homo sapiens, UniProt P05186, H451E); assay: biochemical
Sequence of hTNALP B434 (P05186 whole entry H451E): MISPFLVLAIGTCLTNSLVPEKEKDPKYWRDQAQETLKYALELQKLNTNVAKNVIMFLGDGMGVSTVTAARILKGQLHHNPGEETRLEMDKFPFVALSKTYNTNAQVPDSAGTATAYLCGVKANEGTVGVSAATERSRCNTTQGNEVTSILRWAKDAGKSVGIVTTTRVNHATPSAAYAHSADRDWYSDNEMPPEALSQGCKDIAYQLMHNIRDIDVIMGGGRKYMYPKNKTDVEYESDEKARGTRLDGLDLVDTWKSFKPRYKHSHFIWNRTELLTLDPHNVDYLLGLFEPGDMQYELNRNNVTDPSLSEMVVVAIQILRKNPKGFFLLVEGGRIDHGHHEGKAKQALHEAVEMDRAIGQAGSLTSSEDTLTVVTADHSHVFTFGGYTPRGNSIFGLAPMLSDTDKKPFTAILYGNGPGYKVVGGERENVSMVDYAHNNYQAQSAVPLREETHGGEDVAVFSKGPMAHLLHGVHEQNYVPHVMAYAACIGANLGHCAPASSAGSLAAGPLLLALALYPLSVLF

hTNALP D433 = hTNALP D433 (Homo sapiens, UniProt P05186, R450D); assay: biochemical
Sequence of hTNALP D433 (P05186 whole entry R450D): as the sequence (P05186 whole entry H451E) above, with R450D, E451H counted along it

hPLALP = target: T2, hPLALP (Homo sapiens, UniProt P05187); assay: Ki of uncompetitive inhibitors (pNPP substrate); format: biochemical; settings: read-out: Ki for various inhibitors
T2 construct: made in house
T2 sequence (P05187 23-506 limits assumed): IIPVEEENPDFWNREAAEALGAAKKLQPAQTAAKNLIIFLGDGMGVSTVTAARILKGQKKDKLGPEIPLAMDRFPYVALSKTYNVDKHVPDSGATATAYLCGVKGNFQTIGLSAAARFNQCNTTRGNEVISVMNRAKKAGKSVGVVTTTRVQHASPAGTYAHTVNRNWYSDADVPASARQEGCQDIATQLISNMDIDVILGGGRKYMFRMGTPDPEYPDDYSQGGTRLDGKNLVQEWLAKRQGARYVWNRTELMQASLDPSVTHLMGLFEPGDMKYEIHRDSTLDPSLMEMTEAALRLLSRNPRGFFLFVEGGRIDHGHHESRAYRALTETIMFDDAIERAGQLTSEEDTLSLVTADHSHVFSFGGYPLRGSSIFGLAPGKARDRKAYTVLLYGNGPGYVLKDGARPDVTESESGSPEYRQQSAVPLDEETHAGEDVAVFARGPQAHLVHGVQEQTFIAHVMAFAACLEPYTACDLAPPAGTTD
Description: (§1) In brief, samples of the enzymes were added to microtiter plates coated with M2 anti-FLAG antibody, and saturating activities with the substrate pNPP were measured in 1 M DEA/HCl buffer, pH 9.8, containing 1 mM MgCl2 and 20 .micro.M ZnCl2.

hPLALP H429 = target: T3, hPLALP H429 (Homo sapiens, UniProt P05187, E451H); assay: Ki of uncompetitive inhibitors (pNPP substrate); format: biochemical; settings: hPLALP mutant H429; read-out: Ki for various inhibitors
T3 construct: made in house; host or cells: COS-7 (given only for the TNAP-Flag constructs)
T3 sequence (P05187 23-506 E451H limits assumed): as the sequence (P05187 23-506 limits assumed) above, with E429H counted along it
Description: as §1

hPLALP S119 = target: T4, hPLALP S119 (Homo sapiens, UniProt P05187, N141S); assay: Ki of uncompetitive inhibitors (pNPP substrate); format: biochemical; settings: hPLALP mutant S119; read-out: Ki for various inhibitors
T4 construct: made in house; host or cells: COS-7 (given only for the TNAP-Flag constructs)
T4 sequence (P05187 23-506 N141S limits assumed): as the sequence (P05187 23-506 limits assumed) above, with N119S counted along it
Description: as §1

hPLALP G108 = target: T5, hPLALP G108 (Homo sapiens, UniProt P05187, Q130G); assay: Ki of uncompetitive inhibitors (pNPP substrate); format: biochemical; settings: hPLALP mutant G108; read-out: Ki for various inhibitors
T5 construct: made in house; host or cells: COS-7 (given only for the TNAP-Flag constructs)
T5 sequence (P05187 23-506 Q130G limits assumed): as the sequence (P05187 23-506 limits assumed) above, with Q108G counted along it
Description: as §1

hPLALP (E107, G429) = target: T6, hPLALP (E107, G429) (Homo sapiens, UniProt P05187, E451G/F129E); assay: Ki of uncompetitive inhibitors (pNPP substrate); format: biochemical; settings: hPLALP mutant (E107, G429); read-out: Ki for various inhibitors
T6 construct: made in house; host or cells: COS-7 (given only for the TNAP-Flag constructs)
T6 sequence (P05187 23-506 F129E/E451G limits assumed): as the sequence (P05187 23-506 limits assumed) above, with F107E, E429G counted along it
Description: as §1

hPLALP D165 = target: T7, hPLALP D165 (Homo sapiens, UniProt P05187, N187D); assay: Ki of uncompetitive inhibitors (pNPP substrate); format: biochemical; settings: hPLALP mutant D165; read-out: Ki for various inhibitors
T7 construct: made in house; host or cells: COS-7 (given only for the TNAP-Flag constructs)
T7 sequence (P05187 23-506 N187D limits assumed): as the sequence (P05187 23-506 limits assumed) above, with N165D counted along it
Description: as §1

hTNALP A433 = hTNALP A433 (Homo sapiens, UniProt P05186, R450A); assay: biochemical
Sequence of hTNALP A433 (P05186 18-501 R450A): as the sequence (P05186 18-501 S137N) above, with N120S, R433A counted along it

hTNALP A166 = hTNALP A166 (Homo sapiens, UniProt P05186, D183A); assay: biochemical
Sequence of hTNALP A166 (P05186 18-501 D183A): as the sequence (P05186 18-501 S137N) above, with N120S, D166A counted along it

hTNALP A168 = hTNALP A168 (Homo sapiens, UniProt P05186, D185A); assay: biochemical
Sequence of hTNALP A168 (P05186 18-501 D185A): as the sequence (P05186 18-501 S137N) above, with N120S, D168A counted along it

hTNALP A120 = hTNALP A120 (Homo sapiens, UniProt P05186, S137A); assay: biochemical
Sequence of hTNALP A120 (P05186 18-501 S137A): as the sequence (P05186 18-501 S137N) above, with N120A counted along it

hTNALP A371 = hTNALP A371 (Homo sapiens, UniProt P05186, Y388A); assay: biochemical
Sequence of hTNALP A371 (P05186 18-501 Y388A): as the sequence (P05186 18-501 S137N) above, with N120S, Y371A counted along it

hTNALP N166 = hTNALP N166 (Homo sapiens, UniProt P05186, D183N); assay: biochemical
Sequence of hTNALP N166 (P05186 18-501 D183N): as the sequence (P05186 18-501 S137N) above, with N120S, D166N counted along it

hTNALP A434 = hTNALP A434 (Homo sapiens, UniProt P05186, H451A); assay: biochemical
Sequence of hTNALP A434 (P05186 18-501 H451A): as the sequence (P05186 18-501 S137N) above, with N120S, H434A counted along it

hTNALP G434 = hTNALP G434 (Homo sapiens, UniProt P05186, H451G); assay: biochemical
Sequence of hTNALP G434 (P05186 18-501 H451G): as the sequence (P05186 18-501 S137N) above, with N120S, H434G counted along it

hTNALP F108 = hTNALP F108 (Homo sapiens, UniProt P05186, E125F); assay: biochemical
Sequence of hTNALP F108 (P05186 18-501 E125F): as the sequence (P05186 18-501 S137N) above, with E108F, N120S counted along it

hTNALP A108 = hTNALP A108 (Homo sapiens, UniProt P05186, E125A); assay: biochemical
Sequence of hTNALP A108 (P05186 18-501 E125A): as the sequence (P05186 18-501 S137N) above, with E108A, N120S counted along it

hTNALP = hTNALP (Homo sapiens, UniProt P05186); assay: biochemical
Sequence of hTNALP (P05186 18-501): as the sequence (P05186 18-501 S137N) above, with N120S counted along it

hTNALP D120 = hTNALP D120 (Homo sapiens, UniProt P05186, S137D); assay: biochemical
Sequence of hTNALP D120 (P05186 18-501 S137D): as the sequence (P05186 18-501 S137N) above, with N120D counted along it

Sequence of hTNALP Q434 (P05186 18-501 H451Q): as the sequence (P05186 18-501 S137N) above, with N120S, H434Q counted along it
Sequence of hTNALP (F104, Q109) (P05186 whole entry E125F/G126Q): as the sequence (P05186 whole entry H451E) above, with E125F, G126Q, E451H counted along it

Structure (SMILES)	Ki (hTNALP (F104, Q109)) [mM]	Ki (hTNALP Q434) [mM]	Ki (hTNALP N120) [mM]	Ki (chTNALP) [mM]	Ki (hTNALP B434) [mM]	Ki (hTNALP D433) [mM]	Ki (hPLALP) [mM]	Ki (hPLALP H429) [mM]	Ki (hPLALP S119) [mM]	Ki (hPLALP G108) [mM]	Ki (hPLALP (E107, G429)) [mM]	Ki (hPLALP D165) [mM]	Ki (hTNALP A433) [mM]	Ki (hTNALP A166) [mM]	Ki (hTNALP A168) [mM]	Ki (hTNALP A120) [mM]	Ki (hTNALP A371) [mM]	Ki (hTNALP N166) [mM]	Ki (hTNALP A434) [mM]	Ki (hTNALP G434) [mM]	other results
N[C@@H](Cc1ccccc1)C(=O)O [L-Phe, L-phenylalanine]	2.1 ± 0.4	9.8 ± 1	23 ± 8	11 ± 0.9	43 ± 8	23 ± 5	0.75 ± 0.05	0.31 ± 0.03	0.67 ± 0.08	2.4 ± 0.3	1 ± 0.16	0.54 ± 0.04	31 ± 3	24 ± 4	30 ± 4	24 ± 2	65 ± 24	32 ± 5	21 ± 6	9.6 ± 1	Ki (hTNALP F108): 3.7 ± 0.5 mM; Ki (hTNALP A108): 27 ± 4 mM; Ki (hTNALP): 19 ± 6 mM; Ki (hTNALP D120): 34 ± 4 mM
N=C(N)NCCCC[C@H](N)C(=O)O [L-hArg, L-homoarginine]	15 ± 2	2 ± 0.1	1.3 ± 0.1	1.9 ± 0.2	6.8 ± 0.5	1.5 ± 0.2	59 ± 15	10.7 ± 1.5	61 ± 13	60 ± 9	1.5 ± 0.2	59 ± 25	1.6 ± 0.2	1.6 ± 0.3	1.5 ± 0.3	1.4 ± 0.1	31 ± 3	1.8 ± 0.1	1.5 ± 0.1	1.6 ± 0.2	Ki (hTNALP F108): 48 ± 11 mM; Ki (hTNALP A108): 14 ± 1 mM; Ki (hTNALP): 1.4 ± 0.1 mM; Ki (hTNALP D120): 1.4 ± 0.1 mM
